4 molecules from EPA's ToxRefDB 2 can be followed below.

Data set [1] relates to mouse. To be noted: Carcinogenicity; b6c3f1; Oral; Feed; dose end: 24 month; group: systemic; systemic / in life observation / body weight / body weight gain.
In data set [2] the test system is rat. The following applies: Carcinogenicity, other, Oral, Feed, dose end: 78 week, group: systemic.
The subject of data set [3] is mouse. To be noted: Carcinogenicity, b6c3f1, Oral, Feed, dose end: 78 week, group: systemic.
The test system of data set [4] is rat. To be noted: Multigenerational reproductive toxicity study, sprague dawley, Oral, Feed, dose end: 2 generation.
Data set [5] concerns dog. To be noted: Chronic toxicity, beagle, Oral, Capsule, dose end: 52 week.
In data set [6] the test system is rat. The following applies: Combined chronic toxicity/carcinogenicity, sprague dawley, Oral, Feed, dose end: 24 month.
Data set [7] concerns mouse. The following applies: Carcinogenicity, cd1, Oral, Feed, dose end: 2 year, group: systemic.
For data set [8], the system named is mouse. To be noted: Subchronic oral toxicity in rodents, cd1, Feed, dose end: 98 day, group: systemic, systemic / organ weight / liver / absolute + systemic / organ weight / liver / relative to body weight + systemic / pathology microscopic / ….
In data set [9] the test system is rat. The following applies: Prenatal developmental toxicity study, sprague dawley, Oral, Gavage/Intubation, dose end: 15 GD.
Data set [10] concerns mouse. To be noted: Carcinogenicity, other, Oral, Feed, dose end: 24 month, group: systemic.
Data set [11] concerns rat. To be noted: Subchronic oral toxicity in rodents, wistar, Feed, dose end: 98 day, group: systemic.
For data set [12], the system named is dog. To be noted: Chronic toxicity, beagle, Oral, Feed, dose end: 52 week, group: systemic.
A further data set relates to rabbit. The following applies: Prenatal developmental toxicity study, new zealand white, Oral, Gavage/Intubation, dose end: 18 GD.
The subject of data set [13] is rat. The following applies: Combined chronic toxicity/carcinogenicity, wistar, Oral, Feed, dose end: 24 month, group: systemic.
Where [14] appears, read: systemic / in life observation / body weight / body weight + systemic / pathology microscopic / testes / atrophy.
The mark [15] stands for this setting: systemic / pathology microscopic / adrenal gland / adenoma + systemic / in life observation / body weight / body weight + systemic / in life….
Setting [16] is: systemic / in life observation / body weight / body weight.
The mark [17] stands for this setting: systemic / in life observation / body weight / body weight + systemic / pathology microscopic / liver / carcinoma + systemic / in life ….
The mark [18] stands for this setting: group: offspring, developmental / offspring survival late / lactation index / lactation index.
The mark [19] stands for this setting: group: offspring, systemic / in life observation / body weight / offspring (pup) weight.
[20] abbreviates: group: parental, systemic / in life observation / body weight / body weight.
Where [21] appears, read: group: reproductive, reproductive / offspring survival early / litter size / litter size.
Setting [22] is: group: reproductive, reproductive / offspring survival early / litter size / litter size + reproductive / offspring survival early / litter viability other / ….
Where [23] appears, read: group: cholinesterase, cholinesterase / cholinesterase / cholinesterase / brain cholinesterase (che) + cholinesterase / cholinesterase / cholinesterase / plasma ….
[24] abbreviates: group: systemic, systemic / in life observation / body weight / body weight gain + systemic / in life observation / food consumption / food efficiency + ….
Setting [25] is: group: cholinesterase, cholinesterase / cholinesterase / cholinesterase / brain cholinesterase (che) + cholinesterase / cholinesterase / cholinesterase / ….
Setting [26] is: group: systemic, systemic / in life observation / mortality / mortality.
Setting [27] is: group: systemic, systemic / in life observation / mortality / mortality + systemic / clinical chemistry / alanine aminotransferase (alt/sgpt) / alanine ….
[28] abbreviates: systemic / in life observation / mortality / mortality + systemic / hematology / lymphocyte / lymphocyte + systemic / in life observation / ….
The mark [29] stands for this setting: group: developmental, developmental / developmental malformation / bone / absent + developmental / developmental malformation / bone / delayed ossification + ….
The mark [30] stands for this setting: group: maternal, systemic / in life observation / clinical signs / abnormal gait + systemic / in life observation / body weight / body weight + systemic / in….
[31] abbreviates: systemic / clinical chemistry / albumin-globulin ratio / albumin-globulin ratio + systemic / clinical chemistry / glucose / glucose.
Setting [32] is: systemic / pathology microscopic / liver / fatty change + systemic / pathology microscopic / liver / granuloma + systemic / pathology ….
[33] abbreviates: systemic / in life observation / body weight / body weight + systemic / in life observation / body weight / body weight gain + systemic / in….
[34] abbreviates: systemic / clinical chemistry / alanine aminotransferase (alt/sgpt) / alanine aminotransferase (alt/sgpt) + systemic / clinical chemistry / ….
Setting [35] is: systemic / pathology microscopic / spleen / hemosiderosis + systemic / pathology microscopic / liver / cytoplasmic alteration.
Setting [36] is: group: developmental, developmental / developmental malformation / bone / incomplete ossification.
The mark [37] stands for this setting: group: maternal, systemic / in life observation / body weight / body weight gain + systemic / in life observation / food consumption / food consumption.
Setting [38] is: systemic / clinical chemistry / creatinine / creatinine.

As for `Cc1c(C(=O)O)c(O)cc2c1C(=O)c1c(O)c([C@@H]3O[C@H](CO)[C@@H](O)[C@H](O)[C@H]3O)c(O)c(O)c1C2=O` [Carminic acid], in the data set on mouse [1], the LEL is 4500 mg/kg/day, the LOAEL (commonly the lowest tested level that showed an adverse finding) is greater than 9000 mg/kg/day, the NEL is less than 4500 mg/kg/day and the NOAEL (usually the highest tested level that showed no adverse finding) was no less than 9000 mg/kg/day.
Regarding `CCOC(=O)C(O)(c1ccc(Cl)cc1)c1ccc(Cl)cc1` [Chlorobenzilate], in the data set on rat [2] (setting [14]), the LOAEL came to 80 mg/kg/day and the NOAEL was less than 80 mg/kg/day. Further, in the data set on rat [2] (setting [15]), the LEL is 58.8 mg/kg/day and the NEL was less than 58.8 mg/kg/day. In the data set with mouse [3] (setting [16]), this molecule returned an LOAEL of 480 mg/kg/day and an NOAEL of less than 480 mg/kg/day. Besides, in the data set with mouse [3] (setting [17]), the LEL worked out at 480 mg/kg/day and the NEL is less than 480 mg/kg/day.
With `COP(=O)(OC)O/C(C)=C/C(=O)N(C)C` [Dicrotophos], the lowest observed adverse effect level (LOAEL) with rat [4] (setting [18]) is greater than 2.53 mg/kg/day; in the data set with rat [4] (group: parental, systemic / in life observation / body weight / body weight + systemic / in life observation / food consumption / food efficiency), 0.49 mg/kg/day; in the data set with rat [4] (setting [21]), 0.56 mg/kg/day; in the data set on dog [5] (setting [23]) it was 0.1 mg/kg/day; with dog [5] (group: systemic, systemic / in life observation / body weight / body weight gain + systemic / in life observation / food consumption / food efficiency) it was 0.1 mg/kg/day; in the data set on rat [6] (setting [25]), 0.02 mg/kg/day. In addition, the LOAEL with rat [6] (setting [26]) stood at 0.25 mg/kg/day; in the data set on mouse [7] (systemic / in life observation / mortality / mortality), 1.58 mg/kg/day. Further, the NOAEL was no less than 2.53 mg/kg/day in the data set with rat [4] (setting [18]); 0.05 mg/kg/day with rat [4] (group: parental, systemic / in life observation / body weight / body weight + systemic / in life observation / food consumption / food efficiency + systemic…); 0.05 mg/kg/day in the data set with rat [4] (setting [22]); 0.025 mg/kg/day with dog [5] (setting [23]); 0.025 mg/kg/day with dog [5] (setting [24]); less than 0.02 mg/kg/day in the data set with rat [6] (setting [25]). Also, the NOAEL in the data set with rat [6] (setting [27]) turned out to be 0.02 mg/kg/day; in the data set with mouse [7] (setting [28]) it was 0.31 mg/kg/day. Moreover, the LEL in the data set on rat [4] (setting [19]) is 0.05 mg/kg/day; in the data set on rat [4] (setting [20]), 0.06 mg/kg/day; with rat [4] (setting [21]), 0.56 mg/kg/day; with dog [5] (setting [23]) it was 0.1 mg/kg/day; in the data set with dog [5] (setting [24]) it was 0.1 mg/kg/day; in the data set with rat [6] (setting [25]), 0.02 mg/kg/day. The LEL was determined as 0.25 mg/kg/day with rat [6] (setting [26]) and 1.58 mg/kg/day with mouse [7] (systemic / in life observation / mortality / mortality + systemic / pathology gross / eye / discolored). Besides, the NEL in the data set with rat [4] (setting [19]) was less than 0.05 mg/kg/day; in the data set with rat [4] (setting [20]), less than 0.06 mg/kg/day; in the data set on rat [4] (setting [22]), 0.05 mg/kg/day; in the data set with dog [5] (setting [23]), 0.025 mg/kg/day; in the data set on dog [5] (setting [24]) it was 0.025 mg/kg/day; with rat [6] (setting [25]) it was less than 0.02 mg/kg/day. For the same molecule, the NEL in the data set with rat [6] (setting [27]) was 0.02 mg/kg/day; in the data set on mouse [7] (setting [28]), 0.31 mg/kg/day.
`CCC/C(=N\OCC)C1=C(O)CC(CC(C)SCC)CC1=O` (stereo not given) [Sethoxydim]: the LEL turned out to be 137 mg/kg/day with mouse [8]; 180 mg/kg/day in the data set with rat [9] (group: developmental, developmental / developmental malformation / bone / absent); 650 mg/kg/day in the data set on rat [9] (group: maternal, systemic / in life observation / clinical signs / abnormal gait + systemic / in life observation / clinical signs / anogenital staining + …); 4.85 mg/kg/day in the data set with mouse [10] (setting [31]); 60.4 mg/kg/day in the data set with rat [11] (systemic / organ weight / liver / relative to body weight + systemic / pathology microscopic / liver / hypertrophy); 8.7 mg/kg/day in the data set with dog [12] (setting [35]). Moreover, the LEL is 400 mg/kg/day in the data set on rabbit (setting [36]), 400 mg/kg/day with rabbit (setting [37]) and 12 mg/kg/day in the data set on rat [13] (setting [38]). Further, the lowest observed adverse effect level (LOAEL) with mouse [8] was 137 mg/kg/day; with rat [9] (setting [29]) it was 650 mg/kg/day; in the data set with rat [9] (group: maternal, systemic / in life observation / clinical signs / abnormal gait), 180 mg/kg/day; with mouse [10] (setting [32]) it was 41.2 mg/kg/day; with rat [11] (setting [33]), 196 mg/kg/day; with dog [12] (setting [34]) it was 110 mg/kg/day. Also, the LOAEL was 400 mg/kg/day in the data set on rabbit (setting [36]), 400 mg/kg/day with rabbit (setting [37]) and 48 mg/kg/day in the data set on rat [13] (systemic / pathology microscopic / liver / hypertrophy). The NEL in the data set with mouse [8] was 45.6 mg/kg/day; with rat [9] (setting [29]), 50 mg/kg/day; in the data set with rat [9] (setting [30]) it was 180 mg/kg/day; in the data set with mouse [10] (setting [31]), less than 4.85 mg/kg/day; with rat [11] (setting [33]) it was 20.1 mg/kg/day; in the data set with dog [12] (setting [35]) it was less than 8.7 mg/kg/day. Besides, the NEL in the data set on rabbit (setting [36]) is 160 mg/kg/day; in the data set on rabbit (setting [37]), 160 mg/kg/day; in the data set on rat [13] (setting [38]), less than 12 mg/kg/day. For the same molecule, the NOAEL was found to be 45.6 mg/kg/day in the data set on mouse [8]; 180 mg/kg/day in the data set with rat [9] (setting [29]); 50 mg/kg/day with rat [9] (setting [30]); 13.8 mg/kg/day in the data set on mouse [10] (setting [32]); 60.4 mg/kg/day with rat [11] (setting [33]); 17.5 mg/kg/day in the data set on dog [12] (setting [34]). The NOAEL was 160 mg/kg/day with rabbit (setting [36]), 160 mg/kg/day with rabbit (setting [37]) and 12 mg/kg/day in the data set with rat [13] (systemic / pathology microscopic / liver / hypertrophy + systemic / clinical chemistry / alkaline phosphatase (alp/alk) / alkaline …).
